Results on twelve compounds are retold here after patent US10167296B2, “Sulfoximine substituted quinazolines for pharmaceutical compositions” (EVOTEC INTERNATIONAL GMBH, priority 2014, dated 2019).

pIC50: −log10 of the molar value.

Assay [1] relates to MNK2 (MNK2a or MNK2b) or MNK1. As to conditions: cell culture cells transfected with MNK2 (MNK2a or MNK2b) or MNK1; cited from earlier work.
Assay [2] addresses MNK2a (pre-activated GST-MNK2a) (Homo sapiens (Human), UniProt Q9HBH9). Kind of assay: MNK2a in vitro kinase assay (assay 1), ADP-Glo. As to conditions: read-out: Mnk2 IC50. Format: biochemical. The method, then:
A. MNK2a In Vitro Kinase Assay (Assay 1)
The inhibition of kinase activity of MNK2a was assessed using pre-activated GST-MNK2a. The white, 384-well OptiPlate F plates were purchased from PerkinElmer. The ADP-Glo Kinase Assay (including ultra pure ATP) was purchased from Promega (V9103). Activated MNK2a was obtained as described in WO2011/104340. […] ID No. 5 of WO 2011/104340 by the C-terminal —CONH2 group, was purchased from Thermo Fisher Scientific. All other materials were of highest grade commercially available. Compounds are tested in either serial dilutions or single dose concentrations. The compound stock solutions are 10 mM in 100% DMSO The serial compound dilutions are prepared in 100% DMSO followed by 1:27.3 intermediate dilution in assay buffer. The final DMSO concentration in assay will be <3%.
In the 384-well plates 3 μl of test compound from the intermediate dilution is mixed with 4 μl of the activated MNK2 enzyme (final concentration of 10 nM) and 4 μl of the peptide (final concentration of 25 μM)/ultra pure ATP (final concentration of 20 μM), all dissolved in assay buffer. This step is followed by an incubation time of 90 min, then 10 μl of ADP Glo reagent are added, followed by 40 min of incubation. Then 20 μl of kinase detection reagent are admixed. The plates are sealed and after an incubation period of 30 min, the luminescence signal is measured in an Envision reader to determine the amount of produced ADP. All incubation steps are performed at room temperature.
The assay buffer consists of 20 mM HEPES, 2 mM DTT, 0.01% BSA, 20 mM MgCl2 and 0.1% Pluronic F-127.
The luminescent signal generated is proportional to the ADP concentration produced and is correlated with activated MNK2 activity. The analysis of the data is performed by the calculation of the percentage of ATP consumption of activated MNK2 in the presence of the test compound compared to the consumption of ATP in the presence of activated MNK2 without compound. (RLU(sample)−RLU(low control))*100/(RLU(high value)−RLU(low control))
[RLU=Relative Luminescence Units]
Values of more than 100% CTL are normally related to compound/sample specific physico-chemical properties (e.g. solubility, light absorbance, fluorescence).
IC50 values based on dose response curves are calculated with the AssayExplorer software.
Background: ADP-Glo first removes unused ATP, then detects ADP through luciferase.

For assay [3], the target named is MNK1a (pre-activated GST-MNK1a) (Homo sapiens (Human), UniProt Q9BUB5). Kind of assay: MNK1 in vitro kinase assay (assay 2), Z'-LYTE. Format: biochemical. As to conditions: for inhibition at 1 µM: compound concentration of 1 μM, read-out: Mnk1 % Inh. From the text: B. MNK1 In Vitro Kinase Assay (Assay 2)
Chain of MNK1a (pre-activated GST-MNK1a) (Q9BUB5 other isoform, or with tags, fused parts or gaps): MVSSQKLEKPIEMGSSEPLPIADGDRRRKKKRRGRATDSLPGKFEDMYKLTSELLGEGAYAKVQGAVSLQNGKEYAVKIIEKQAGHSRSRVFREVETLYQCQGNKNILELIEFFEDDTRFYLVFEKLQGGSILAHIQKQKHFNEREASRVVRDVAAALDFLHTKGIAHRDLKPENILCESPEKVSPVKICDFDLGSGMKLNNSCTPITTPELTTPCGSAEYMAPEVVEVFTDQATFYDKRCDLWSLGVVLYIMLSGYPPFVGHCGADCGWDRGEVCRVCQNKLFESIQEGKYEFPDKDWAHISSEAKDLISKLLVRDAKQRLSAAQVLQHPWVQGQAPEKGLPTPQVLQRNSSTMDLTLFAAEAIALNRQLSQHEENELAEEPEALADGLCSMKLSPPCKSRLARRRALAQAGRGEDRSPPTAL
MNK1 Data can be obtained from the MNK1 Z′-LYTE® assay. The MNK1 Z′-LYTE® screening protocol and assay conditions are also described on www.invitrogen.com.
The assay is described as follows:
The Z′-LYTE® biochemical assay employs a fluorescence-based, coupled-enzyme format and is based on the differential sensitivity of phosphorylated and non-phosphorylated peptides to proteolytic cleavage. The peptide substrate is labeled with two fluorophores—one at each end—that make up a FRET pair.
In the primary reaction, the kinase transfers the gamma-phosphate of ATP to a single tyrosine, serine or threonine residue in a synthetic FRET-peptide. In the secondary reaction, a site-specific protease recognizes and cleaves non-phosphorylated FRET-peptides. Phosphorylation of FRET-peptides suppresses cleavage by the Development Reagent. Cleavage disrupts FRET between the donor (i.e., coumarin) and acceptor (i.e., fluorescein) fluorophores on the FRET-peptide, whereas uncleaved, phosphorylated FRET-peptides maintain FRET. A ratiometric method, which calculates the ratio (the Emission Ratio) of donor emission to acceptor emission after excitation of the donor fluorophore at 400 nm, is used to quantitate reaction progress, as shown in the equation below. Emission Ratio=Coumarin Emission(445 nm)/Fluorescein Emission(520 nm)
The inhibition of kinase activity of MNK1a was assessed using pre-activated GST-MNK1a. The 2×MKNK1 (MNK1) mixture is prepared in 50 mM HEPES pH 7.5, 0.01% BRIJ-35, 10 mM MgCl2, 4 mM MnCl2, 1 mM EGTA, 2 mM DTT. The final 10 μL Kinase Reaction consists of 13.5-54 ng MKNK1 (MNK1) and 2 μM Ser/Thr 07 in 50 mM HEPES pH 7.5, 0.01% BRIJ-35, 10 mM MgCl2, 2 mM MnCl2, 1 mM EGTA, 1 mM DTT. After the 1 hour Kinase Reaction incubation, 5 μL of a 1:32768 dilution of Development Reagent A is added.
The Test Compounds are screened in 1% DMSO (final) in the well.
All Peptide/Kinase Mixtures are diluted to a 2×working concentration in the MNK1 Kinase Buffer.
All ATP Solutions are diluted to a 4×working concentration in Kinase Buffer (50 mM HEPES pH 7.5, 0.01% BRIJ-35, 10 mM MgCl2, 1 mM EGTA).
Development Reagent Solution:
The Development Reagent is diluted in Development Buffer
Bar-coded Corning, low volume NBS, 384-well plate (Corning Cat. #3676)
1. 2.5 μL—4×Test Compound
2. 5 μL—2×Peptide/Kinase Mixture
5. 60-minute Kinase Reaction incubation at room temperature
6. 5 μL—Development Reagent Solution
8. 60-minute Development Reaction incubation at room temperature
9. Read on fluorescence plate reader and analyze the data
The following equations are used for each set of data points:
Correction for Background Fluorescence: FISample−FITCFI Ctl Emission Ratio (using values corrected for background fluorescence):Coumarin Emission (445 nm)/Fluorescein Emission (520 nm)
% Phosphorylation (% Phos): 1−((Emission Ratio×F100%)−C100%)/((C0%−C100%)+[Emission Ratio×(F100%−F0%)])*100
% Inhibition: 1−(% PhosSample/% Phos0% Inhibition Ctl)*100 FI=Fluorescence Intensity C100%=Average Coumarin emission signal of the 100% Phos. Control C0%=Average Coumarin emission signal of the 0% Phos. Control F100%=Average Fluorescein emission signal of the 100% Phos. Control F0%=Average Fluorescein emission signal of the 0% Phos. Control
SelectScreen® Kinase Profiling Service uses XLfit from IDBS. The dose response curve is curve fit to model number 205 (sigmoidal dose-response model).

Chain of MNK2a (pre-activated GST-MNK2a) (Q9HBH9 whole entry): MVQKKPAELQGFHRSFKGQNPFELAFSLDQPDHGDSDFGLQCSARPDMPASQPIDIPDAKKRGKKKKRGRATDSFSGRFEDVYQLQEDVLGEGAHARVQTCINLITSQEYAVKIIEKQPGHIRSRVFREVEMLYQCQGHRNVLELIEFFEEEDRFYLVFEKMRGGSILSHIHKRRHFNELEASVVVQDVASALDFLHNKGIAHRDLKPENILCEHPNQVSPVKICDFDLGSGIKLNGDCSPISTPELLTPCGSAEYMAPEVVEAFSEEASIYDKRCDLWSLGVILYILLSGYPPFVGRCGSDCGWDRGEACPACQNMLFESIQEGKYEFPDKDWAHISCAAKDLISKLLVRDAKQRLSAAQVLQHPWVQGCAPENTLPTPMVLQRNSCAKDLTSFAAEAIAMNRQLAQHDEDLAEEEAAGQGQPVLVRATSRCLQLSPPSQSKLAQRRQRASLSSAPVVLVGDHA

For `Nc1ncnc2n[nH]c(Nc3ccc(F)cc3)c12` [CGP57380], the “reduction of phosphorylated elF4E” value in assay [1] is on record as “strong reduction”. One may read the pIC50 as the IC50 on a negative log10 scale, so that one unit is a factor of ten. Turning to `COc1c(N=S2(=O)CCC2)cc2ncnc(Nc3ccc(F)cc3O[C@H](C)C(=O)N[C@@H](C)C(F)(F)F)c2c1C` [Example 2.53], the pIC50 in assay [2] was 8.80. Also, in assay [3], the inhibition at 1 µM came out at 105%. The matching figures for `COc1c(N=S2(=O)CCCC2)cc2ncnc(Nc3ccc(F)cc3O[C@H](C)C(F)(F)F)c2c1C` [Example 2.54]: 8.80 and 91%. As for `COc1c(N=S2(=O)CCCC2)cc2ncnc(Nc3ccc(F)cc3O[C@@H]3CO[C@H]4[C@@H]3OC[C@H]4OC)c2c1Cl` [Example 2.55], in assay [2], the negative logarithm of the IC50 (pIC50) was 8.80. For the same compound, the inhibition at 1 µM in assay [3] was found to be 104%. For the compound `COc1c(N=S2(=O)CCCC2)cc2ncnc(Nc3ccc(Cl)cc3O[C@H](C)C(=O)NCC(F)(F)F)c2c1C` [Example 2.56], the pIC50 in assay [2] is 8.57. In addition, in assay [3], the inhibition at 1 µM amounted to 97%. As to `COc1c(N=S2(=O)CCC2)cc2ncnc(Nc3ccc(F)cc3O[C@H]3CCOC3)c2c1C` [Example 2.57], the pIC50 is 8.96 in assay [2] and 7.66 in assay [3]. The matching figures for `COc1c(N=S2(=O)CCC2)cc2ncnc(Nc3ccc(F)cc3O[C@H]3CC[C@H](O)CC3)c2c1C` [Example 2.58]: 8.62 and 7.42. Regarding `COc1c(N=S2(=O)CCC2)cc2ncnc(Nc3ccc(F)cc3O[C@@H]3CO[C@@H]4CCO[C@@H]43)c2c1Cl` [Example 2.59], the pIC50 in assay [2] is 8.85. In assay [3], the inhibition at 1 µM was 108%.

Consider `Cc1c(OCC2CC2)c(N=S(C)(C)=O)cc2ncnc(Nc3ccc(F)cc3O[C@H](C)C(F)(F)F)c12` [Example 3.01], for which the pIC50 was 8.48 in assay [2] and 6.74 in assay [3]. The matching figures for `COCCOc1c(N=S(C)(C)=O)cc2ncnc(Nc3ccc(F)cc3O[C@H](C)C(F)(F)F)c2c1C` [Example 3.02]: 8.59 and 6.95. For `Cc1c(OC(C)C)c(N=S(C)(C)=O)cc2ncnc(Nc3ccc(F)cc3O[C@H](C)C(F)(F)F)c12` [Example 3.03], the values for the negative-log IC50 (pIC50) in assay [2] and in assay [3] were 8.19 and 6.55, respectively. The matching figures for `Cc1c(OC2CCOC2)c(N=S(C)(C)=O)cc2ncnc(Nc3ccc(F)cc3O[C@H](C)C(F)(F)F)c12` (some centres unmarked) [Example 3.04]: 8.68 and 6.93.
